How the values were obtained:
[1] = system: HMPV clinical isolate TN/1501/A1; test: HMPV antiviral assay Method-B (clinical isolate TN/1501/A1 in LLC-MK2 cells, ATP-Lite readout); format: cell-based, Human metapneumovirus (HMPV); conditions: human metapneumovirus, LLC-MK2, 144 h, hMPV WT1501 (clinical isolate TN/1501/A1), 6 days
Procedure, shortened: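 EC50 derived by four-parameter logistic fit of percent cell health, measured by ATP-Lite luminescence and normalised to virus-only and uninfected-cell controls. Compounds run in duplicate from 10 μM top, 3-fold, 10 points. Infection: LLC-MK2 cells, MOI 0.014, 2 μg/mL final TPCK-trypsin, serum-free, 6 days at 37° C.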

[2] = system: genotype A, "Long" strain RSV; test: RSV-A assay (CPE protection in Hep-2 cells, ATPlite readout); format: cell-based, Human respiratory syncytial virus (HRSV); conditions: human respiratory syncytial virus, RSV-A Long strain, MOI 0.1, CPE protection, read-out: Human RSV-A (“Long”) EC50
Procedure, shortened: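 Hep-2 cells (8,000/well) infected with RSV Long strain at MOI 0.1 in the presence of 2-fold compound dilutions in duplicate. After 5 days, cell viability measured by ATPlite luminescence, normalized between virus-only and uninfected cell controls; EC50 reported.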

Compound | EC50 [1] [nM] | EC50 [2] [nM]
COc1cc(C(=O)NC[C@](O)(c2cc3c(c(-c4ccc(F)cc4)n2)OC[C@]3(CF)C(N)=O)C2CC2)cc2cn(C3CC3)nc12 [Example 1064] | < 500 | < 200
COc1cc(C(=O)NC[C@](O)(c2cc3c(c(-c4ccc(F)cc4)n2)OC[C@@]3(C(N)=O)C2CC2)C(F)(F)F)cc2cc(C3CC3)nn12 [Example 1065] | < 500 | < 200
COc1cc(C(=O)NC[C@](O)(c2cc3c(c(-c4ccc(F)cc4)n2)OC[C@]3(C(N)=O)C2CC2)C(F)(F)F)cc2cc(C3CC3)nn12 [Example 1066] | > 500 | > 200
C[C@]1(C(N)=O)COc2c1cc([C@@](O)(CNC(=O)c1cc3c(cn1)OC(F)(F)O3)C(F)(F)F)nc2-c1ccc(F)cc1 [Example 1067] | > 500 | < 200
COc1cc(C(=O)NC[C@](O)(c2cc3c(c(-c4ccc(F)cc4)n2)OC[C@]3(C)C(N)=O)C(F)(F)F)cc2cn(C(F)(F)F)nc12 [Example 1068] | < 500 | < 200
COc1cc(C(=O)NC[C@](O)(c2cc3c(c(-c4ccc(F)cc4)n2)OC[C@]3(C)C(N)=O)C(F)(F)F)cc2cc(C(F)F)nnc12 [Example 1069] | > 500 | < 200
COc1cc(C(=O)NC[C@](O)(c2cc3c(c(-c4ccc(F)c(C#N)c4F)n2)OC[C@]3(C)C(N)=O)C(F)(F)F)cc2cn(C3CC3)nc12 [Example 1080] | < 500 | < 200
COc1cc(C(=O)NC[C@](O)(c2nc(-c3cc(Cl)c(F)cc3F)c3c(c2Cl)[C@@](C)(C(N)=O)CO3)C2CC2)cc2cn(C3CC3)nc12 [Example 1081] | < 500 | < 200
COc1cc(C(=O)NC[C@](O)(c2cc3c(c(-c4cccc(Br)c4F)n2)OC[C@]3(C)C(N)=O)C2CC2)cc2cn(C3CC3)nc12 [Example 1085] | < 500 | < 200
COc1cc(C(=O)NC[C@](O)(c2cc3c(c(-c4cccc(Br)c4F)n2)OC[C@]3(C)C(N)=O)C2CC2)cc2cn(C3(F)CC3)nc12 [Example 1087] | < 500 | < 200
COc1cc(C(=O)NC[C@](O)(c2cc3c(c(-c4cc(Br)c(F)cc4F)n2)OC[C@]3(C)C(N)=O)C2CC2)cc2cn(C3CC3)nc12 [Example 1088] | < 500 | < 200
C[C@]1(C(N)=O)COc2c1cc([C@@](O)(CNC(=O)c1ccc3nn(C4CC4)cc3c1)C1CC1)nc2-c1cc(Br)c(F)cc1F [Example 1095] | < 500 | < 200
C[C@]1(C(N)=O)COc2c1cc([C@@](O)(CNC(=O)c1cc(Cl)c3nn(C4CC4)cc3c1)C1CC1)nc2-c1cc(Br)c(F)cc1F [Example 1096] | < 500 | < 200
COc1cc(C(=O)NC[C@](O)(c2cc3c(c(-c4cccc(Br)c4F)n2)OC[C@]3(C)C(N)=O)C2CC2)cc2cn(C(F)F)nc12 [Example 1098] | < 500 | < 200
C[C@]1(C(N)=O)COc2c1cc([C@@](O)(CNC(=O)c1cc(Cl)c3nn(C4CC4)cc3c1)C1CC1)nc2-c1cccc(Br)c1F [Example 1099] | < 500 | < 200
C[C@]1(C(N)=O)COc2c1cc([C@@](O)(CNC(=O)c1ccc3nn(C4CC4)cc3c1)C1CC1)nc2-c1cccc(Br)c1F [Example 1100] | < 500 | < 200
C[C@]1(C(N)=O)COc2c1cc([C@@](O)(CNC(=O)c1ccc3nn(C4CC4)cc3c1)C1CC1)nc2-c1ccc(F)c(Br)c1F [Example 1101] | < 500 | < 200
C[C@]1(C(N)=O)COc2c1cc([C@@](O)(CNC(=O)c1cc(Cl)c3nn(C4CC4)cc3c1)C(F)(F)F)nc2-c1cccc(F)c1Cl [Example 1119] | < 500 | < 200
COc1cc(C(=O)NC[C@](O)(c2cc3c(c(-c4cccc(F)c4Cl)n2)OC[C@]3(C)C(N)=O)C(F)(F)F)cc2cn(C(F)F)nc12 [Example 1120] | < 500 | < 200
COc1cc(C(=O)NC[C@](O)(c2cc3c(c(-c4cccc(F)c4Cl)n2)OC[C@]3(C)C(N)=O)C(F)(F)F)cc2cc(Br)cnc12 [Example 1121] | < 500 | < 200
C[C@]1(C(N)=O)COc2c1cc([C@@](O)(CNC(=O)c1cc(Cl)c3nn(C4CC4)cc3c1)C1CC1)nc2-c1cccc(F)c1Cl [Example 1123] | < 500 | < 200
C[C@]1(C(N)=O)COc2c1cc([C@@](O)(CNC(=O)c1cc(OC3CC3)c3ncc(C#N)cc3c1)C(F)(F)F)nc2-c1ccc(F)cc1 [Example 1133] | > 500 | < 200
COc1cc(C(=O)NC[C@](O)(c2cc3c(c(-c4ccc(F)cc4)n2)OC[C@]3(C)C(N)=O)C(F)(F)F)cc2cc(C#N)cnc12 [Example 1134] | > 500 | < 200
COc1cc(C(=O)NC[C@](O)(c2cc3c(c(-c4cc(F)c(F)cc4F)n2)OC[C@]3(C)C(N)=O)C(F)(F)F)cc2cn(C3CC3)nc12 [Example 1135] | < 500 | < 200
COc1cc(C(=O)NC[C@](O)(c2cc3c(c(-c4cc(F)c(F)cc4F)n2)OC[C@]3(C)C(N)=O)C(F)(F)F)cc2cn(C(F)F)nc12 [Example 1136] | < 500 | < 200

The next lines start with the values.

EC50 [1] [nM] | EC50 [2] [nM] | Compound
< 500 | < 200 | COc1cc(C(=O)NC[C@](O)(c2cc3c(c(-c4ccc(F)c(Cl)c4F)n2)OC[C@]3(C)C(N)=O)C2CC2)cc2cc(C)c(Cl)nc12 [Example 1072]
< 500 | < 200 | COc1cc(C(=O)NC[C@](O)(c2cc3c(c(-c4ccc5c(c4)OC(F)(F)O5)n2)OC[C@]3(C)C(N)=O)C2CC2)cc2cc(C)c(Cl)nc12 [Example 1074]
< 500 | < 200 | Cc1cnc2c(Cl)cc(C(=O)NC[C@](O)(c3cc4c(c(-c5ccc(F)c(Br)c5F)n3)OC[C@]4(C)C(N)=O)C3CC3)cc2c1 [Example 1084]
< 500 | < 200 | COc1cc(C(=O)NC[C@](O)(c2cc3c(c(-c4cc(Br)c(F)cc4F)n2)OC[C@]3(C)C(N)=O)C2CC2)cc2cn(C3(F)CC3)nc12 [Example 1089]
> 500 | < 200 | COc1cc(C(=O)NC[C@](O)(c2cc3c(c(-c4ccc(F)cc4)n2)OC[C@]3(C)C(N)=O)C(F)(F)F)cc2cc(Br)c(Cl)nc12 [Example 1090]
< 500 | < 200 | Cc1cnc2c(Cl)cc(C(=O)NC[C@](O)(c3cc4c(c(-c5cccc(Br)c5F)n3)OC[C@]4(C)C(N)=O)C3CC3)cc2c1 [Example 1091]
< 500 | < 200 | COc1cc(C(=O)NC[C@](O)(c2cc3c(c(-c4cccc(Br)c4F)n2)OC[C@]3(C)C(N)=O)C2CC2)cc2cc(Cl)c(C)nc12 [Example 1092]
< 500 | < 200 | Cc1cnc2c(Cl)cc(C(=O)NC[C@](O)(c3cc4c(c(-c5cc(Br)c(F)cc5F)n3)OC[C@]4(C)C(N)=O)C3CC3)cc2c1 [Example 1093]
< 500 | < 200 | COc1cc(C(=O)NC[C@](O)(c2cc3c(c(-c4cc(Br)c(F)cc4F)n2)OC[C@]3(C)C(N)=O)C2CC2)cc2cc(Cl)c(C)nc12 [Example 1094]
< 500 | < 200 | COc1cc(C(=O)NC[C@](O)(c2cc3c(c(-c4cc(Br)c(F)cc4F)n2)OC[C@]3(C)C(N)=O)C2CC2)cc2cn(C(F)F)nc12 [Example 1097]
< 500 | < 200 | Cc1cnc2c(Cl)cc(C(=O)NC[C@](O)(c3cc4c(c(-c5ccc(F)c(C(F)(F)F)c5)n3)OC[C@]4(C)C(N)=O)C3CC3)cc2c1 [Example 1102]
< 500 | < 200 | COc1cc(C(=O)NC[C@](O)(c2cc3c(c(-c4ccc(F)c(C(F)(F)F)c4)n2)OC[C@]3(C)C(N)=O)C2CC2)cc2cc(Cl)c(C)nc12 [Example 1103]
> 500 | > 200 | COc1cc(C(=O)NC[C@](O)(c2cc3c(c(-c4ccc(F)cc4)n2)OC[C@]3(C)C(N)=O)C(F)(F)F)cc2cc(Cl)c(Cl)nc12 [Example 1104]
> 500 | < 200 | COc1cc(C(=O)NC[C@](O)(c2cc3c(c(-c4ccc(F)cc4)n2)OC[C@]3(C)C(N)=O)C2CC2)cc2cc(Cl)c(Cl)nc12 [Example 1105]
< 500 | < 200 | Cc1cnc2c(OC(F)F)cc(C(=O)NC[C@](O)(c3cc4c(c(-c5cc(Br)c(F)cc5F)n3)OC[C@]4(C)C(N)=O)C3CC3)cc2c1 [Example 1106]
< 500 | < 200 | COc1cc(C(=O)NC[C@](O)(c2cc3c(c(-c4cccc(F)c4Cl)n2)OC[C@]3(C)C(N)=O)C2CC2)cc2cn(C3CC3)nc12 [Example 1122]
< 500 | < 200 | COc1cc(C(=O)NC[C@](O)(c2cc3c(c(-c4cccc(F)c4Cl)n2)OC[C@]3(C)C(N)=O)C2CC2)cc2cc(Br)cnc12 [Example 1124]
< 500 | < 200 | COc1cc(C(=O)NC[C@](O)(c2cc3c(c(-c4ccc(F)cc4)n2)OC[C@]3(C)C(N)=O)C2CC2)cc2cc(Br)cnc12 [Example 1125]
< 500 | < 200 | COc1cc(C(=O)NC[C@](O)(c2cc3c(c(-c4cccc(F)c4Cl)n2)OC[C@]3(C)C(N)=O)C2CC2)cc2cc(Br)c(C)nc12 [Example 1126]
< 500 | < 200 | COc1cc(C(=O)NC[C@](O)(c2cc3c(c(-c4cc(Cl)c(F)cc4F)n2)OC[C@]3(C)C(N)=O)C2(F)CC2)cc2cc(Br)c(C)nc12 [Example 1127]
> 500 | < 200 | COc1cc(C(=O)NC[C@](O)(c2cc3c(c(-c4ccc(F)cc4)n2)OC[C@]3(C)C(N)=O)C2CC2)cc2cc(C(F)F)nnc12 [Example 1128]

Source: patent US12612412B2, “Antiviral heterocyclic compounds” (Enanta Pharmaceuticals, Inc., priority 2021, dated 2026)
